Results taken from patent publication US20250017907A1, “METHOD FOR PREVENTING AND/OR TREATING LIVER FIBROSIS BY USING 6-METHOXYBENZOXAZOLINONE AND COIX LACHRYMA-JOBI L. EXTRACT COMPRISING 6-METHOXYBENZOXAZOLINONE” (Taichung District Agricultural Research and Extension …, priority 2023, published 2025).

How the values were obtained:
[1] = tested on: TAA-induced liver fibrotic C57BL/6J mice; assay: Liver histopathological observation (H&E, Sirius Red, IHC staining); type: in vivo; details: 6 weeks; for collagen deposition (Sirius Red) / inflammatory infiltration (H&E) / liver structure deformation (H&E) / α-SMA expression (IHC): vs TAA group
Procedure: According to the present invention, animals used in the following examples are described as follows. Male C57BL/6J mice (5-week-old) were from the National Laboratory Animal Center (Taipei, Taiwan), and housed in a temperature-controlled room on a 12 h light-dark cycle with free access to food and drinking water at the Animal Center of the National Yang Ming Chiao Tung University (Taipei, Taiwan). All experiments were approved by Institutional Animal Care and Use Committee of National Yang Ming Chiao Tung University. […]
For tests of CX, mice were randomly divided into the following four groups (n=8, per group): (1) NT group, (2) TAA group (200 mg/kg), (3) CX group (CX20, 20 mg/kg), and (4) CX group (CX50, 50 mg/kg). NT group received pure saline, and other groups intraperitoneally injected with TAA dissolved into saline thrice a week. Moreover, NT group and TAA group also received 5% propylene glycol, while CX groups received CX dissolved into 5% propylene glycol (prepared in 0.9% saline) by oral gavage once per day. […]
The procedure of liver histopathological observation is as follows. After fixation in 10% neutral buffered formalin solution, the liver tissues were embedded with paraffin and then sliced into 4 μm-thickness sections. Pathological sections were examined to assess the change of tissue architecture with the H&E staining kit (CIS-Biotechnology, Taiwan), the condition of collagen deposition with the Sirius Red staining kit (CIS-Biotechnology, Taiwan), and the expression of specific proteins in tissue with the immunohistochemistry kit (Agilent, USA), as well as phospho-SMAD2 (1:100; GeneTex, USA), phospho-SMAD3 (1:100; GeneTex, USA), and α-SMA (1:100; GeneTex, USA) antibodies.
To examine the effects of CX on liver fibrosis, this example established a TAA-induced liver fibrotic C57BL/6J mouse model. FIG. 6 is a schematic diagram of animal experiment design in 6-methoxybenzoxazolinone (6-MBOA) (CX) groups. For animal experiments, 6-week-old C57BL/6J mice were randomly divided into four groups including NT, TAA, CX20 (TAA+20 mg/kg CX), CX50 (TAA+50 mg/kg CX). (n=8 per group). Mice were given intraperitoneal injection of TAA thrice a week to induce liver fibrosis; they also received CX or the vehicle by oral gavage once per day. At the end of animal tests, mice were sacrificed at 12 weeks of age. Six-week-old mice were randomly divided into four groups, namely NT, TAA, CX20 and CX50 (FIG. 6). Among these groups, only the NT group was oral gavaged and administered with vehicle, the TAA group was oral gavaged with vehicle and administered with TAA, and the CX groups were oral gavaged with CX and administered with TAA. Oral gavage was performed once a day while intraperitoneal injection was given thrice a week; both oral gavage and intraperitoneal injection were continuously administered for six weeks. After that, the mice were sacrificed, and their liver tissues and serum were collected for subsequent analyses.

[2] = tested on: TGF-β1-activated HSC-T6 cells; assay: ROS detection assay (DCFDA); type: cell-based, rat; details: HSC-T6, TGF-β1, CX 10-100 μM, with increasing doses
Procedure: (§1) The procedure of cell cultures is as follows. HSC-T6 cell is an immortalized cell line isolated from transformed SV40 large T-antigen transformed primary stellate cells of male Sprague-Dawley rats. HSC-T6 cells were maintained in Dulbecco's Modified Eagle Medium (DMEM, Sigma-Aldrich, USA) containing 8% fetal bovine serum (FBS, HyClone, USA), 100 U/mL of penicillin, and 100 μg/mL of streptomycin (Gibco, USA).
(§2) For hepatic stellate cell (HSC) activation, cells were cultured for 24 h and then replaced with serum-free medium for 24 h, after that, treated with transforming growth factor beta 1 (TGF-β1) (10 ng/mL) in the presence or absence of CX (10-100 μM) or adlay leaf, root, and seed extracts (25 and 50 μg/mL) for 24 h, or 30 min for intracellular signal pathways.
The procedure of ROS detection assay is as follows. 2′,7′-Dichlorofluorescein diacetate (DCFDA), a cell-permeable fluorogenic probe, is usually used to detect ROS and nitric oxide in live cells. DCFDA rapidly de-esterifies to form fluorescent 2′,7′-dichlorofluorescein (DCF) when it is oxidized by ROS in cells. For ROS detection, cells were seeded in the 96-well plate for 24 h, then starvation (culture in serum-free medium) and drug treatment, followed by changing the medium with DCFDA solution for 30 min, and detecting the excitation/emission spectra of 485/525 nm by multimode microplate readers (TECAN, Switzerland).

[3] = tested on: TGF-β/SMAD signaling pathway; assay: Western blot of TGF-β/SMAD signaling pathway proteins; type: cell-based, rat; details: HSC-T6, TGF-β1 10 ng/mL, CX 10-100 μM
Procedure: as §1, §2
(§3) The procedure of Western blot analysis is as follows. Cells were lysed in RIPA buffer with protease inhibitor and then centrifuged at 4° C., 12000 rpm for 10 min. Collected the supernatant and quantified the total protein concentration to 50 μg. After heating at 95° C. for 10 min, the protein samples were separated by SDS-PAGE gel, transferred to PVDF membrane, followed by blocking with 6% milk, incubated with primary antibodies at 4° C., overnight and secondary antibodies at room temperature for 1 h. Blot images were visualized on Amersham Imager 680 (Cytiva, USA) with ECL agent (GeneDireX, USA).

[4] = tested on: TGF-β1-activated HSC-T6 cells; assay: Western blot of fibrotic and EMT-related proteins; type: cell-based, rat; details: HSC-T6, TGF-β1 10 ng/mL, 24 h
Procedure: as §1, §2, §3

[5] = CX20: 20 mg/kg oral gavage once per day
[6] = CX50: 50 mg/kg oral gavage once per day

`COc1ccc2[nH]c(=O)oc2c1` [CX, 6-methoxybenzoxazolinone] was tested, and the “collagen deposition (Sirius Red)” value [1, 5] was “significantly reduced”, the “inflammatory infiltration (H&E)” value [1, 5] was “significantly reduced” and the “liver structure deformation (H&E)” value [1, 5] was “significantly reduced”. The “α-SMA expression (IHC)” value [1, 5] was “significantly reduced”, the “p-SMAD2 expression (IHC)” value [1, 6] was “negatively regulated” and the “p-SMAD3 expression (IHC)” value [1, 6] was “negatively regulated”. For the same compound, the “collagen deposition (Sirius Red)” value [1, 6] was “significantly reduced”, the “inflammatory infiltration (H&E)” value [1, 6] was “significantly reduced” and the “liver structure deformation (H&E)” value [1, 6] was “significantly reduced”. For the same compound, the “α-SMA expression (IHC)” value [1, 6] was “significantly reduced”, the “TGF-β1-induced ROS levels (DCFDA)” value [2] was “reduced” and the “NOX4 expression (Western blot)” value [3] was “decreased”. For the same compound, the “SNAIL1/2 expression (Western blot)” value [3] was “decreased”, the “TWIST1/2 expression (Western blot)” value [3] was “decreased” and the “ZEB1 expression (Western blot)” value [3] was “decreased”. The “TGF-β1-stimulated SMAD2 phosphorylation (p-SMAD2, Western blot)” value ([3]; 30 min) was “decreased with increasing dose”, the “TGF-β1-stimulated SMAD3 phosphorylation (p-SMAD3, Western blot)” value ([3]; 30 min) was “decreased with increasing dose” and the “TGF-β1-induced COL1A1 expression (Western blot)” value ([4]; CX 10-100 μM) was “reduced”. The “TGF-β1-induced fibronectin expression (Western blot)” value ([4]; CX 10-100 μM) was “reduced”, the “TGF-β1-induced α-SMA expression (Western blot)” value ([4]; CX 10-100 μM) was “reduced” and the “E-cadherin expression (Western blot)” value ([4]; CX even at the lowest dose (10 μM)) was “significantly enhanced”.
